In article PMC10620772, “Design, synthesis, and biological evaluation of new pyrimidine-5-carbonitrile derivatives as novel anti-cancer, dual EGFR^WT/COX-2 inhibitors with docking studies” (RSC Advances, 2023):

Assays:
Assay type in all cases: cell-based, human
[1] = system: CCRF-CEM; assay: NCI60 antitumor screening; settings: 10 μM one-dose
[2] = system: HL-60(TB); assay: NCI60 antitumor screening; settings: 10 μM one-dose
[3] = system: K-562; assay: NCI60 antitumor screening; settings: 10 μM one-dose
[4] = system: MOLT-4; assay: NCI60 antitumor screening; settings: 10 μM one-dose
[5] = system: RPMI-8226; assay: NCI60 antitumor screening; settings: 10 μM one-dose
[6] = system: SR; assay: NCI60 antitumor screening; settings: 10 μM one-dose
[7] = system: A549/ATCC; assay: NCI60 antitumor screening; settings: 10 μM one-dose
[8] = system: EKVX; assay: NCI60 antitumor screening; settings: 10 μM one-dose
[9] = system: HOP-62; assay: NCI60 antitumor screening; settings: 10 μM one-dose
[10] = system: HOP-92; assay: NCI60 antitumor screening; settings: 10 μM one-dose
[11] = system: NCI-H226; assay: NCI60 antitumor screening; settings: 10 μM one-dose
[12] = system: NCI-H23; assay: NCI60 antitumor screening; settings: 10 μM one-dose
[13] = system: NCI-H322M; assay: NCI60 antitumor screening; settings: 10 μM one-dose
[14] = system: NCI-H460; assay: NCI60 antitumor screening; settings: 10 μM one-dose
[15] = system: NCI-H522; assay: NCI60 antitumor screening; settings: 10 μM one-dose
[16] = system: COLO 205; assay: NCI60 antitumor screening; settings: 10 μM one-dose
[17] = system: HCC-2998; assay: NCI60 antitumor screening; settings: 10 μM one-dose
[18] = system: HCT-116; assay: NCI60 antitumor screening; settings: 10 μM one-dose
[19] = system: HCT-15; assay: NCI60 antitumor screening; settings: 10 μM one-dose
[20] = system: HT29; assay: NCI60 antitumor screening; settings: 10 μM one-dose
[21] = system: KM12; assay: NCI60 antitumor screening; settings: 10 μM one-dose
[22] = system: SW-620; assay: NCI60 antitumor screening; settings: 10 μM one-dose
[23] = system: SF-268; assay: NCI60 antitumor screening; settings: 10 μM one-dose
[24] = system: SF-295; assay: NCI60 antitumor screening; settings: 10 μM one-dose
[25] = system: SF-539; assay: NCI60 antitumor screening; settings: 10 μM one-dose
[26] = system: SNB-19; assay: NCI60 antitumor screening; settings: 10 μM one-dose
[27] = system: SNB-75; assay: NCI60 antitumor screening; settings: 10 μM one-dose
[28] = system: U251; assay: NCI60 antitumor screening; settings: 10 μM one-dose
[29] = system: LOX IMVI; assay: NCI60 antitumor screening; settings: 10 μM one-dose
[30] = system: MALME-3M; assay: NCI60 antitumor screening; settings: 10 μM one-dose
[31] = system: M14; assay: NCI60 antitumor screening; settings: 10 μM one-dose
[32] = system: MDA-MB-435; assay: NCI60 antitumor screening; settings: 10 μM one-dose
[33] = system: SK-MEL-2; assay: NCI60 antitumor screening; settings: 10 μM one-dose
[34] = system: SK-MEL-28; assay: NCI60 antitumor screening; settings: 10 μM one-dose
[35] = system: SK-MEL-5; assay: NCI60 antitumor screening; settings: 10 μM one-dose
[36] = system: UACC-257; assay: NCI60 antitumor screening; settings: 10 μM one-dose
[37] = system: UACC-62; assay: NCI60 antitumor screening; settings: 10 μM one-dose
[38] = system: IGROV1; assay: NCI60 antitumor screening; settings: 10 μM one-dose
[39] = system: OVCAR-3; assay: NCI60 antitumor screening; settings: 10 μM one-dose
[40] = system: OVCAR-4; assay: NCI60 antitumor screening; settings: 10 μM one-dose
[41] = system: OVCAR-5; assay: NCI60 antitumor screening; settings: 10 μM one-dose
[42] = system: OVCAR-8; assay: NCI60 antitumor screening; settings: 10 μM one-dose
[43] = system: NCI/ADR-RES; assay: NCI60 antitumor screening; settings: 10 μM one-dose
[44] = system: SK-OV-3; assay: NCI60 antitumor screening; settings: 10 μM one-dose
[45] = system: 786–0; assay: NCI60 antitumor screening; settings: 10 μM one-dose
[46] = system: A498; assay: NCI60 antitumor screening; settings: 10 μM one-dose
[47] = system: ACHN; assay: NCI60 antitumor screening; settings: 10 μM one-dose
[48] = system: CAKI-1; assay: NCI60 antitumor screening; settings: 10 μM one-dose
[49] = system: RXF 393; assay: NCI60 antitumor screening; settings: 10 μM one-dose
[50] = system: SN12C; assay: NCI60 antitumor screening; settings: 10 μM one-dose
[51] = system: TK-10; assay: NCI60 antitumor screening; settings: 10 μM one-dose
[52] = system: UO-31; assay: NCI60 antitumor screening; settings: 10 μM one-dose
[53] = system: PC-3; assay: NCI60 antitumor screening; settings: 10 μM one-dose
[54] = system: DU-145; assay: NCI60 antitumor screening; settings: 10 μM one-dose
[55] = system: MCF7; assay: NCI60 antitumor screening; settings: 10 μM one-dose
[56] = system: MDA-MB-231/ATCC; assay: NCI60 antitumor screening; settings: 10 μM one-dose
[57] = system: HS 578T; assay: NCI60 antitumor screening; settings: 10 μM one-dose
[58] = system: BT-549; assay: NCI60 antitumor screening; settings: 10 μM one-dose
[59] = system: T-47D; assay: NCI60 antitumor screening; settings: 10 μM one-dose
[60] = system: MDA-MB-468; assay: NCI60 antitumor screening; settings: 10 μM one-dose
[61] = system: NCI60 cell lines panel; assay: NCI60 antitumor screening, full panel; settings: 10 μM one-dose, mean over NCI60
Summary of the method: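 Single-concentration screen at 10 μM across the NCI60 panel (leukaemia, NSCLC, colon, CNS, melanoma, ovarian, renal, prostate, breast). Results are expressed as percent growth inhibition (GI%) of treated lines.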

N#Cc1c(-c2ccc(F)cc2)nc(SCc2ccc([N+](=O)[O-])cc2)nc1N1CCOCC1 [4c, 4-(4-Fluorophenyl)-6-morpholino-2-((4-nitrobenzyl)thio) pyrimidine-5-carbonitrile]
GI% [1]: 22.80% | GI% [2]: 17.28% | GI% [3]: 23.12% | GI% ([3]; Table 1): — (GI value > 70%) | GI% [4]: 26.34% | GI% [5]: 19.73% | GI% ([6]; Table 1): — (GI value > 70%) | GI% [7]: 36.61% | GI% [8]: 60.74% | GI% [9]: 65.34% | GI% ([9]; Table 1): — (GI value > 70%) | GI% [10]: 63.28% | GI% ([11]; Table 1): 76.22% | GI% [12]: 25.17% | GI% [13]: 17.30% | GI% [14]: 22.56% | GI% [15]: 58.72% | GI% [16]: — (GI% < 10) | GI% [17]: — (GI% < 10) | GI% [18]: 35.64% | GI% [19]: 27.19% | GI% [20]: 13.41% | GI% [21]: 15.07% | GI% [22]: 19.46% | GI% [23]: 50.66% | GI% [24]: 58.52% | GI% ([25]; Table 1): 73.77% | GI% [26]: 53.96% | GI% ([27]; Table 1): 92.38% | GI% [28]: 44.68% | GI% [29]: 15.29% | GI% [30]: 57.24% | GI% [31]: 12.25% | GI% [32]: 16.03% | GI% [33]: 12.63% | GI% [34]: 17.90% | GI% [35]: 38.14% | GI% [36]: 45.85% | GI% [37]: 37.29% | GI% [38]: 19.45% | GI% [39]: 30.28% | GI% [40]: 42.76% | GI% ([40]; Table 1): — (GI value > 70%) | GI% [41]: — (GI% < 10) | GI% [42]: 46.89% | GI% [43]: 58.37% | GI% [44]: 55.46% | GI% [45]: 69.78% | GI% ([45]; Table 1): — (GI value > 70%) | GI% [46]: 35.57% | GI% [47]: 48.98% | GI% [48]: 64.15% | GI% ([49]; Table 1): 90.21% | GI% [50]: 25.44% | GI% [51]: 15.83% | GI% [52]: 49.11% | GI% [53]: 40.85% | GI% [54]: 26.65% | GI% [55]: 41.49% | GI% [56]: 52.93% | GI% ([57]; Table 1): 84.42% | GI% [58]: 41.46% | GI% [59]: 44.55% | GI% [60]: 49.44% | Mean GI% [61]: 39.54%

Cc1ccc(CSc2nc(-c3ccc(F)cc3)c(C#N)c(=O)[nH]2)cc1 [2d, 4-(4-Fluorophenyl)-2-((4-methylbenzyl)thio)-6-oxo-1,6-dihydropyrimidine-5-carbonitrile]
GI% [1]: — (GI% < 10) | GI% [2]: 43.38% | GI% [3]: — (GI% < 10) | GI% [4]: 11.64% | GI% [5]: — (GI% < 10) | GI% [6]: — (GI% < 10) | GI% [7]: 10.16% | GI% [8]: — (GI% < 10) | GI% [9]: — (GI% < 10) | GI% [10]: — (GI% < 10) | GI% [11]: — (GI% < 10) | GI% [12]: — (GI% < 10) | GI% [13]: — (GI% < 10) | GI% [14]: — (GI% < 10) | GI% [15]: 12.91% | GI% [16]: — (GI% < 10) | GI% [17]: — (GI% < 10) | GI% [18]: — (GI% < 10) | GI% [19]: 15.77% | GI% [20]: 10.72% | GI% [21]: — (GI% < 10) | GI% [22]: — (GI% < 10) | GI% [23]: — (GI% < 10) | GI% [24]: — (GI% < 10) | GI% [25]: — (GI% < 10) | GI% [26]: — (GI% < 10) | GI% [27]: — (GI% < 10) | GI% [28]: — (GI% < 10) | GI% [29]: — (GI% < 10) | GI% [30]: — (GI% < 10) | GI% [31]: — (GI% < 10) | GI% [32]: — (GI% < 10) | GI% [33]: — (GI% < 10) | GI% [34]: — (GI% < 10) | GI% [35]: — (GI% < 10) | GI% [36]: — (GI% < 10) | GI% [37]: — (GI% < 10) | GI% [38]: — (GI% < 10) | GI% [39]: — (GI% < 10) | GI% [40]: — (GI% < 10) | GI% [41]: — (GI% < 10) | GI% [42]: — (GI% < 10) | GI% [43]: — (GI% < 10) | GI% [44]: — (GI% < 10) | GI% [45]: — (GI% < 10) | GI% [46]: — (GI% < 10) | GI% [47]: — (GI% < 10) | GI% [48]: — (GI% < 10) | GI% [49]: — (GI% < 10) | GI% [50]: — (GI% < 10) | GI% [51]: — (GI% < 10) | GI% [52]: — (GI% < 10) | GI% [53]: — (GI% < 10) | GI% [54]: — (GI% < 10) | GI% [55]: 10.82% | GI% [56]: — (GI% < 10) | GI% [57]: — (GI% < 10) | GI% [58]: 15.75% | GI% [59]: 13.50% | GI% [60]: — (GI% < 10) | Mean GI% [61]: — (GI% < 10)
